# Test results as given in patent publication US20240158348A1, “HERBICIDAL CYCLIC AMIDES N-SUBSTITUTED WITH A HALOALKYLSULFONYLANILIDE GROUP” (FMC Corporation, priority 2021, published 2024).
# Key:
# Assay type in all cases: in vivo
# [1] = system: ryegrass, Italian (Italian ryegrass, Lolium multiflorum); experiment: Test C postemergence, Italian ryegrass; conditions: for Ryegrass, Italian plant response rating: visual injury, 0 to 100 scale (0 no effect, 100 complete control); for Plant response rating (0 to 100 scale), Ryegrass, Italian: 0 is no effect, 100 is complete control
# How it was run: (§1)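 Plants grown in a sand and loam soil blend received the formulated test chemicals either as a preemergence soil-directed spray or postemergence at 2 to 10 cm height. After 10 or 12 greenhouse days, injury was assessed visually, with 100 meaning complete control.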
# [2] = system: foxtail, giant (giant foxtail, Setaria faberi); experiment: Test C preemergence, giant foxtail; conditions: 0 is no effect, 100 is complete control
# How it was run: as §1
# [3] = system: goosegrass (Eleusine indica); experiment: Test C postemergence, goosegrass; conditions: for Goosegrass plant response rating: 31 g ai/ha Postemergence, visual injury, 0 to 100 scale (0 no effect, 100 complete control); for Plant response rating (0 to 100 scale), Goosegrass: 125 g ai/ha Postemergence, 0 is no effect, 100 is complete control
# How it was run: as §1
# [4] = system: corn (Zea mays); experiment: Test C preemergence, corn; conditions: 0 is no effect, 100 is complete control
# How it was run: as §1
# [5] = system: soybean (Glycine max); experiment: Test C postemergence, soybean; conditions: for Soybean plant response rating: visual injury, 0 to 100 scale (0 no effect, 100 complete control); for Plant response rating (0 to 100 scale), Soybean: 0 is no effect, 100 is complete control
# [6] = system: pigweed, palmer (palmer amaranth, Amaranthus palmeri); experiment: Test C postemergence, palmer amaranth; conditions: for Pigweed, Palmer plant response rating: visual injury, 0 to 100 scale (0 no effect, 100 complete control); for Plant response rating (0 to 100 scale), Pigweed, Palmer: 0 is no effect, 100 is complete control
# How it was run: as §1
# [7] = system: kochia (Bassia scoparia); experiment: Test C postemergence, kochia; conditions: for Kochia plant response rating: 31 g ai/ha Postemergence, visual injury, 0 to 100 scale (0 no effect, 100 complete control); for Plant response rating (0 to 100 scale), Kochia: 125 g ai/ha Postemergence, 0 is no effect, 100 is complete control
# How it was run: as §1
Structure (SMILES),"Ryegrass, Italian plant response rating ([1]; 31 g ai/ha Postemergence)","Plant response rating (0 to 100 scale), Ryegrass, Italian ([1]; 125 g ai/ha Postemergence)","Plant response rating (0 to 100 scale), Foxtail, Giant ([2]; 31 g ai/ha Preemergence)","Plant response rating (0 to 100 scale), Foxtail, Giant ([2]; 125 g ai/ha Preemergence)",Goosegrass plant response rating [3],"Plant response rating (0 to 100 scale), Goosegrass [3]","Plant response rating (0 to 100 scale), Corn ([4]; 31 g ai/ha Preemergence)","Plant response rating (0 to 100 scale), Corn ([4]; 125 g ai/ha Preemergence)",Soybean plant response rating ([5]; 31 g ai/ha Postemergence),"Plant response rating (0 to 100 scale), Soybean ([5]; 125 g ai/ha Postemergence)","Pigweed, Palmer plant response rating ([6]; 31 g ai/ha Postemergence)","Plant response rating (0 to 100 scale), Pigweed, Palmer ([6]; 125 g ai/ha Postemergence)",Kochia plant response rating [7],"Plant response rating (0 to 100 scale), Kochia [7]","Ryegrass, Italian plant response rating ([1]; 125 g ai/ha Postemergence)",Soybean plant response rating ([5]; 125 g ai/ha Postemergence),"Pigweed, Palmer plant response rating ([6]; 125 g ai/ha Postemergence)"
CCOC(=O)N(c1cc(N2CCC(OC3CC3)C2=O)c(C)cc1C)S(=O)(=O)C(F)(F)F (stereo not shown) [Compound 19],0,50,0,10,0,90,0,0,80,80,0,10,30,70,–,–,–
CCCC(=O)OCN(c1cc(N2CCC(OC3CC3)C2=O)c(C)cc1C)S(=O)(=O)C(F)(F)F (stereo not shown) [Compound 20],60,100,90,100,90,90,60,90,60,70,50,80,70,80,–,–,–
Cc1cc(C)c(N2CCC(OCC3CC3)C2=O)cc1NS(=O)(=O)C(F)(F)F (stereo not shown) [Compound 22],70,80,100,100,70,90,90,90,60,70,50,80,60,70,–,–,–
Cc1c(N2CCC(OC3CC3)C2=O)cc(N(COC(=O)C(C)(C)C)S(=O)(=O)C(F)(F)F)c(C)c1F (stereo not shown) [Compound 23],50,100,20,90,30,90,10,20,60,60,50,70,30,80,–,–,–
Cc1c(NS(=O)(=O)C(F)(F)F)cc(N2CCC(OC3CCC3)C2=O)c(C)c1F (stereo not shown) [Compound 25],20,–,100,100,50,90,30,90,100,–,70,–,60,90,70,100,90
Cc1c(N2CCC(OC3CCC3)C2=O)cc(N(COC(=O)C(C)(C)C)S(=O)(=O)C(F)(F)F)c(C)c1F (stereo not shown) [Compound 28],40,–,70,100,30,70,0,20,50,–,50,–,50,80,40,60,90
Cc1cc(Cl)c(N(COC(=O)C(C)(C)C)S(=O)(=O)C(F)(F)F)cc1N1CCC(OC2CC2)C1=O (stereo not shown) [Compound 33],20,–,70,100,60,90,30,60,80,–,20,–,80,90,90,100,80
Cc1c(NS(=O)(=O)C(F)(F)F)cc(N2CCCC(OC3CCC3)C2=O)c(C)c1F (stereo not shown) [Compound 36],0,–,50,100,30,90,30,90,70,–,30,–,40,80,40,70,70
Cc1c(N2CCCC(OC3CC3)C2=O)cc(N(COC(=O)C(C)(C)C)S(=O)(=O)C(F)(F)F)c(C)c1F (stereo not shown) [Compound 37],0,–,20,90,0,90,0,10,60,–,0,–,50,70,60,70,30
CC(=O)N(c1cc(N2CCC(OC3CC3)C2=O)c(C)cc1Cl)S(=O)(=O)C(F)(F)F (stereo not shown) [Compound 38],30,–,80,100,30,90,20,80,70,–,50,–,80,90,70,80,80
Cc1c(N2CCCC(OC3CCC3)C2=O)cc(N(COC(=O)C(C)(C)C)S(=O)(=O)C(F)(F)F)c(C)c1F (stereo not shown) [Compound 39],0,–,0,10,0,30,0,10,50,–,0,–,30,60,30,90,20
